According to ChEMBL document CHEMBL5465560, “Selectivity Literature for EUbOPEN Chemogenomic Library” (2024):

Key:
[1] = biological target: T1, Ephrin type-A receptor 6 (Homo sapiens) (UniProt Q9UF33); assay: Selectivity interaction (KinomeScan (DiscoverX)) EUB0001049a EPHA6; settings: at 1 µM
T1 sequence (whole entry): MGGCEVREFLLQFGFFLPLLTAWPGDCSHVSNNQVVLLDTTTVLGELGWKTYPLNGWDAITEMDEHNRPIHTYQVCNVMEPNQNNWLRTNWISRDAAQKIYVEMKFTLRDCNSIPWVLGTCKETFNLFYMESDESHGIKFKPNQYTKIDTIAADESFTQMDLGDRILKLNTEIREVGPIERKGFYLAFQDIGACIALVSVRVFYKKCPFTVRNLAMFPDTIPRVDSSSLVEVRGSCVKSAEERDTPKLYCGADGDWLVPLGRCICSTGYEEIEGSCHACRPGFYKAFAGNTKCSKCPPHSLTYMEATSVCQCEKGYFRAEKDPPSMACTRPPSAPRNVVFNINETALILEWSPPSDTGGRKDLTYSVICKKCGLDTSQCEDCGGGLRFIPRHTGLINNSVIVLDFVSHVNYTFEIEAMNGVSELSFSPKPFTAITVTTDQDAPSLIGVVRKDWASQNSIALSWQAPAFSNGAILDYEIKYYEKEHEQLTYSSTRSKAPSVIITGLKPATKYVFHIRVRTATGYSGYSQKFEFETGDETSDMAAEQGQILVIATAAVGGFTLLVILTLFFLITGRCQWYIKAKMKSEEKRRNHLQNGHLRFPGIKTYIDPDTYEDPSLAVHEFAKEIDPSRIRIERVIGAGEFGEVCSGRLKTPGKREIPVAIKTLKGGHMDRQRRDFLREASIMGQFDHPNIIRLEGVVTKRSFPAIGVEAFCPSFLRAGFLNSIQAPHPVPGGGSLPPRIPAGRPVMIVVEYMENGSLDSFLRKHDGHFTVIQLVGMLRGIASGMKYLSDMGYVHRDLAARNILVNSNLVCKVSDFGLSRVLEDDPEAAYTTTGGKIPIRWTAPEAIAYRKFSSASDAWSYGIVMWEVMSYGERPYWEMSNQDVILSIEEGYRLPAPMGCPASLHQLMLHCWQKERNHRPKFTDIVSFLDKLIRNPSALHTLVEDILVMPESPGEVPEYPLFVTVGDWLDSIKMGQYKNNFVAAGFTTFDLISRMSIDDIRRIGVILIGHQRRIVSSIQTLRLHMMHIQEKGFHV

[2] = biological target: Protein kinase C delta type (Homo sapiens) (UniProt Q05655); assay: Selectivity interaction (KinomeScan (DiscoverX)) EUB0000595a PRKCD; settings: at 10 µM
Protein kinase C delta type (Homo sapiens), sequence (Q05655 whole entry, looked up): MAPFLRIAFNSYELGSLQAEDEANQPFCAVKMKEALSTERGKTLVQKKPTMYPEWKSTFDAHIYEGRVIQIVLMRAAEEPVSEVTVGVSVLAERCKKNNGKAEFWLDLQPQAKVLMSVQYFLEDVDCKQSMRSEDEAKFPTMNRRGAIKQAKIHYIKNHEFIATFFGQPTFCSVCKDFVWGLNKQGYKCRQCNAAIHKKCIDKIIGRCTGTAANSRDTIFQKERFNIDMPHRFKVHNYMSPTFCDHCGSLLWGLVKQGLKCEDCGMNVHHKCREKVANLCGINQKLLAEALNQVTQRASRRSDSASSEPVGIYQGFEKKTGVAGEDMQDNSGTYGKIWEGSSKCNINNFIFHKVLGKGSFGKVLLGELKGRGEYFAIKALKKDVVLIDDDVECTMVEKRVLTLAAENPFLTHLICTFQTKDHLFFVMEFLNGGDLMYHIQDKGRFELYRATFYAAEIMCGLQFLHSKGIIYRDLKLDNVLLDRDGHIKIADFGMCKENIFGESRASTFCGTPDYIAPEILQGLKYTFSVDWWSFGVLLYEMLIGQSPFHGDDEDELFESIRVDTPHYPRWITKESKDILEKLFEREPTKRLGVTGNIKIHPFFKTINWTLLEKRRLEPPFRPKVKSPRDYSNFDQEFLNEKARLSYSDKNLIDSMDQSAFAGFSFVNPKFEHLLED

[3] = tested on: Epidermal growth factor receptor (Homo sapiens), P00533 [UNDEFINED MUTATION]; assay: Selectivity interaction (KinomeScan (DiscoverX)) EUB0000045b EGFR; settings: at 10 µM
[4] = tested on: Hepatocyte growth factor receptor (Homo sapiens), P08581 [M1250T]; assay: (§1) Selectivity interaction (KinomeScan (DiscoverX)) EUB0000655a MET; settings: at 10 µM
Hepatocyte growth factor receptor (Homo sapiens), P08581 [M1250T], sequence (P08581 whole entry M1250T): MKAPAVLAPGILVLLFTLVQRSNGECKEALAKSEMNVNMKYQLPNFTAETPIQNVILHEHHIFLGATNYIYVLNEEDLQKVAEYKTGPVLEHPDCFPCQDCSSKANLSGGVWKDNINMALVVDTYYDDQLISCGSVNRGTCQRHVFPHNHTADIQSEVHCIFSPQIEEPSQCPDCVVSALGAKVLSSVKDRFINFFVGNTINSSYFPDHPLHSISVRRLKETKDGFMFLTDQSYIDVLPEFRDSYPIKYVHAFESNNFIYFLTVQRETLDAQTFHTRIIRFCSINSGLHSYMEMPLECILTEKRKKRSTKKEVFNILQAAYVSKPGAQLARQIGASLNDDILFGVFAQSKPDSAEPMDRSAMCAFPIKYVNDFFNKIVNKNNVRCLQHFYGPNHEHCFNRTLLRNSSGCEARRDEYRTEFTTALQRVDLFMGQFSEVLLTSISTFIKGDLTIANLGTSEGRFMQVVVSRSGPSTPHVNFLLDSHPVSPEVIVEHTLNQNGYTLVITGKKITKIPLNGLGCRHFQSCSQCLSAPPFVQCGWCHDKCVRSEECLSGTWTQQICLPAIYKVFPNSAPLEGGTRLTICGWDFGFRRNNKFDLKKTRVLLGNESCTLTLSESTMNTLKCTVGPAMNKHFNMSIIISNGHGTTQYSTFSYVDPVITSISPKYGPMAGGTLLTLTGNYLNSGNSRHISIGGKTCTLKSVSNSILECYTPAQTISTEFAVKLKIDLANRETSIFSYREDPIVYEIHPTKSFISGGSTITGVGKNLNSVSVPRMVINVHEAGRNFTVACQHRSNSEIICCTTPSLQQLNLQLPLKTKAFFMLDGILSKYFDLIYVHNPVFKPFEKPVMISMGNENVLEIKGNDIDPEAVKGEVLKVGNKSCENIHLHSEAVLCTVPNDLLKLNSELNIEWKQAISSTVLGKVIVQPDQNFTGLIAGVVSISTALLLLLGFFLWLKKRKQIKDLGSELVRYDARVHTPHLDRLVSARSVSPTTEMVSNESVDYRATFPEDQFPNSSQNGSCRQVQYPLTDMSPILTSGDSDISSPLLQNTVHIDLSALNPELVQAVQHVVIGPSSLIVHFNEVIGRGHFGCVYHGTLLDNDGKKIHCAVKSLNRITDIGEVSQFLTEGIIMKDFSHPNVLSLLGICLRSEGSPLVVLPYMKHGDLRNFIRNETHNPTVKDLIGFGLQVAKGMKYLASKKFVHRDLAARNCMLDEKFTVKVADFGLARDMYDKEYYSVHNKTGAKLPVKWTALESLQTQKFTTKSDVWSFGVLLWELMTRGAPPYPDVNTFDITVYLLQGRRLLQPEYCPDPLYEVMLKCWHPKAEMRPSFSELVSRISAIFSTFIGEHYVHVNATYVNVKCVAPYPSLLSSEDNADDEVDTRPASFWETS

[5] = tested on: Hepatocyte growth factor receptor (Homo sapiens), P08581 [Y1235D]; assay: as §1; settings: at 10 µM
Hepatocyte growth factor receptor (Homo sapiens), P08581 [Y1235D], sequence (P08581 whole entry Y1235D): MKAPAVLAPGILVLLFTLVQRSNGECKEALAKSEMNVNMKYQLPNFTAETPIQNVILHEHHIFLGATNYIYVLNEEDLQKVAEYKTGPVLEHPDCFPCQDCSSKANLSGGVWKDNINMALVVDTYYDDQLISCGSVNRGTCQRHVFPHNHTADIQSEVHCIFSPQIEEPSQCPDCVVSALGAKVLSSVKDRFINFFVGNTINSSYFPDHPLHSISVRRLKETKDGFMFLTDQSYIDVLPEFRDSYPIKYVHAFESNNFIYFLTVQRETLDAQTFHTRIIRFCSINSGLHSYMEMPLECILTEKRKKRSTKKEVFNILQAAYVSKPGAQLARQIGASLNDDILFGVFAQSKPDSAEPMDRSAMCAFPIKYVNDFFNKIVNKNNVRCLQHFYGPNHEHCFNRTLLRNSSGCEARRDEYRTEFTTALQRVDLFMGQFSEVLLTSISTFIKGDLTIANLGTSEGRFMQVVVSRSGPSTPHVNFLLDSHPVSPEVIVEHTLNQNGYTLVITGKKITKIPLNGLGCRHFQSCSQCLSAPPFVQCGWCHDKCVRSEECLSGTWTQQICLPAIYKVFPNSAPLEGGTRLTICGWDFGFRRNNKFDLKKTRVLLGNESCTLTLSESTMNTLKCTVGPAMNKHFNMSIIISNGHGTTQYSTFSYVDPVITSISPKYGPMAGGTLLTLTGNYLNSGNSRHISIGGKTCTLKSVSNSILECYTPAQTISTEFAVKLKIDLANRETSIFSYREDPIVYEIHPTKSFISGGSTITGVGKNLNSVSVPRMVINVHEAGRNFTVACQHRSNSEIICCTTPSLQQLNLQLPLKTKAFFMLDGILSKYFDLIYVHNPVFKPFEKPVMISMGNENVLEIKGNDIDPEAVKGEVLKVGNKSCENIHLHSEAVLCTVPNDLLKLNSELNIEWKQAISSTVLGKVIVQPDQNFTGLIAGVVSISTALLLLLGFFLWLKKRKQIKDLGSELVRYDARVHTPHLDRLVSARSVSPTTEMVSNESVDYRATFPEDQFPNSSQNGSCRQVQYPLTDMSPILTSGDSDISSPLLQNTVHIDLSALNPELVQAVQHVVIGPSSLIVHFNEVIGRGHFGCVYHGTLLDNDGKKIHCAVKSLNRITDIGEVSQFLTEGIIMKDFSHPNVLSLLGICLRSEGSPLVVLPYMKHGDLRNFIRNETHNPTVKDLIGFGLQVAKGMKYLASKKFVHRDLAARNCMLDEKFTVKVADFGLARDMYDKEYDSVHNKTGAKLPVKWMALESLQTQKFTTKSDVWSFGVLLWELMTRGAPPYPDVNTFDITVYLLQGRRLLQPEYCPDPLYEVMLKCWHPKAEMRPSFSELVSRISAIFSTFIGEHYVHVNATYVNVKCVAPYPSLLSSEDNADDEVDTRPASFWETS

[6] = biological target: Hepatocyte growth factor receptor (Homo sapiens, UniProt P08581); assay: as §1; settings: at 10 µM
Hepatocyte growth factor receptor, sequence (P08581 whole entry): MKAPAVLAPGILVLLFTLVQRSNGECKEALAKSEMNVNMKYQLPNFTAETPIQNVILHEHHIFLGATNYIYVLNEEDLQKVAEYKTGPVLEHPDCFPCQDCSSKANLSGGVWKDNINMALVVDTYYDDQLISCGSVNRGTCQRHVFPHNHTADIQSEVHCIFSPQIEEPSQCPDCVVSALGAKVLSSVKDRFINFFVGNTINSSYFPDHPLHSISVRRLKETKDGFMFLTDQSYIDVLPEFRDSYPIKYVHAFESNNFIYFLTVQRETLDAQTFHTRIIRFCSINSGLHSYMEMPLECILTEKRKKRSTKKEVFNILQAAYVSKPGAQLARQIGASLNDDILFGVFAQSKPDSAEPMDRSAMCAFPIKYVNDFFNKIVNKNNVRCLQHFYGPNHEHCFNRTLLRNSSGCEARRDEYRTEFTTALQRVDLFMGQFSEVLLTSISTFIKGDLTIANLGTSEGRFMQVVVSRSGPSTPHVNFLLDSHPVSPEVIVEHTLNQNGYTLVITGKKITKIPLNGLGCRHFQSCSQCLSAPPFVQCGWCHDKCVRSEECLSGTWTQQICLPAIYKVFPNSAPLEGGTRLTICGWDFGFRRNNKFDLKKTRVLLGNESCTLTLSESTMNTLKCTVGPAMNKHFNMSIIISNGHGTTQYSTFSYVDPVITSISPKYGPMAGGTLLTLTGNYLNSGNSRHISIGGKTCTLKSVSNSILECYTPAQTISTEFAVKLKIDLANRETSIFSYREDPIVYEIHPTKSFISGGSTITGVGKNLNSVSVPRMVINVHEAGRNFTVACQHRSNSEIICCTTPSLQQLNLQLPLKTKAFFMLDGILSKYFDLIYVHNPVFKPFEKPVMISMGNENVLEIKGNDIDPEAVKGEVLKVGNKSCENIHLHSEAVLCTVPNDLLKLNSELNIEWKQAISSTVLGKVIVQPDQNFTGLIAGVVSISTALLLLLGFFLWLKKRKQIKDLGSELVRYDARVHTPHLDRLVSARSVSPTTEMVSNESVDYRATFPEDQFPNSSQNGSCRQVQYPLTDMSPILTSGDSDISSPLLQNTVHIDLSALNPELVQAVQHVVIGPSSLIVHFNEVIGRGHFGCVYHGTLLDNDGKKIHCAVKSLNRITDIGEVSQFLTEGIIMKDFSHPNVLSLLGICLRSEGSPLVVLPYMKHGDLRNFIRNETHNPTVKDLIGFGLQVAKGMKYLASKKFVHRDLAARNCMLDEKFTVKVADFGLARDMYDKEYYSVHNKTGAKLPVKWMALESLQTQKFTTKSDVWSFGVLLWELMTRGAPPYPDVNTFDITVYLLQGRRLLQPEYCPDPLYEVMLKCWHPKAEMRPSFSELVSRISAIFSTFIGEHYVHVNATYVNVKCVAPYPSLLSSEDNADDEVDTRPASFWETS

[7] = biological target: T2, Inhibitor of nuclear factor kappa-B kinase subunit epsilon (Homo sapiens) (UniProt Q14164); assay: Selectivity interaction (Kinase panel (Z-LYTE Assay)) EUB0001632a IKBKE; settings: at 10 µM
T2 sequence (whole entry): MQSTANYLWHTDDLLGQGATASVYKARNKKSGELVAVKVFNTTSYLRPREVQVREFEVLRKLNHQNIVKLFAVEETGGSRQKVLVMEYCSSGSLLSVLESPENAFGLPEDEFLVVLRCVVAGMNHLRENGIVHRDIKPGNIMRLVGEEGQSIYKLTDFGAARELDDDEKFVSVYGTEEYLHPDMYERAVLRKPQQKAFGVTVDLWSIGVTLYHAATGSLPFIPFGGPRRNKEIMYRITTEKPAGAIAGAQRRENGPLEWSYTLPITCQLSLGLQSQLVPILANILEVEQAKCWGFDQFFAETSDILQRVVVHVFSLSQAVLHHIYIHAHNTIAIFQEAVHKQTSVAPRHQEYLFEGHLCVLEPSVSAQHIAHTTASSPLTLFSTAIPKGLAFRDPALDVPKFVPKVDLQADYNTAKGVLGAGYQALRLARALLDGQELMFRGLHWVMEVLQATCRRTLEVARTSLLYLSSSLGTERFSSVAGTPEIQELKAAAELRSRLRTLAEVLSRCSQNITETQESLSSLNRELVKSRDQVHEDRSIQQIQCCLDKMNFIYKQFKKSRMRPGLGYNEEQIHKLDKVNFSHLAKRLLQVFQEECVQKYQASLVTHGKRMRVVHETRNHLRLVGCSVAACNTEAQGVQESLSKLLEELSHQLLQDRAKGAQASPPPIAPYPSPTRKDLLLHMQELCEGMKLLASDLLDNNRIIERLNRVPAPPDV

[8] = biological target: Serine/threonine-protein kinase mTOR (Homo sapiens, UniProt P42345); assay: Selectivity interaction (Kinase panel (Z-LYTE Assay)) EUB0001632a MTOR; settings: at 10 µM

## COc1cc(Nc2nc(C)cc(-c3cnn4nc(OC)ccc34)n2)cc(C(F)(F)F)c1
[1]
  % of control: 95%

## COCC(=O)NC/C=C/c1ccc2ncnc(Nc3ccc(Oc4ccc(C)nc4)c(C)c3)c2c1 [CP-724714]
[2]
  % of control: 87%

## C=CC(=O)Nc1cc(-n2c(=O)ccc3cnc4ccc(-c5ccc(NS(C)(=O)=O)cc5)cc4c32)ccc1C
[3]
  % of control: 65%

## CN(C)CCOc1ccc(-c2nc(-c3ccncc3)c(-c3ccc4c(c3)CC/C4=N\O)[nH]2)cc1
[4]
  % of control: 64%
[5]
  % of control: 64%
[6]
  % of control: 50%

## Cn1cc(-n2cnc3c(NCc4nc5cc(Cl)c(Cl)cc5[nH]4)nc(N4CCOCC4)nc32)cn1
[7]
  % of control: 2.49%
[8]
  % of control: 7.22%
